{
  "source": "patent US7122326B2",
  "about": "(Universite Louis Pasteur, priority 2001, dated 2006)",
  "key": {"XA transport system": {"system": "XA transport system", "assay": "XA transport in differentiated NCB-20 cells", "type": "cell-based", "procedure": "The cell culture was prepared by using a culture dish of NCB-20 cells at 80% confluence. The culture medium was removed and replaced with 10 ml of DMEM supplemented with 10% FCS. Cells were then detached and suspended by repeated passage of the medium through a 2 mm gauge needle. Cells were then counted in a hemocytometer. The final suspension was adjusted to a cell density of 3.10^4 cells/ml in DMEM medium supplemented with 10% FCS and 1 mM cAMP. Petri dishes were seeded with 2 ml of this suspension and incubated at 37° C. in a moisture-saturated CO2 atmosphere. Cells were used four days after inoculation.\nThe culture medium of 4-day NCB-20 cell cultures differentiated in cAMP was replaced by one of the buffer solutions described hereinabove (Krebs with or without Na^+, to respectively evaluate Na^+-dependent active transport and passive transport, which occurs mainly through diffusion) according to the type of experiment planned. Culture dishes were placed in a water bath at 37° C. for 10 minutes. The buffer was then replaced by the same buffer solution containing [^3H]-XA and XA at concentrations ranging from […]. [^3H]-XA was present at very low concentration and served only as a tracer of the cold (non-radiolabelled) XA. After 1 minute of incubation, the solutions were aspirated and the cells washed three times for 10 seconds with 1 ml of the same buffer (Krebs with or without Na^+), kept on ice. Active transport requires energy (ATP) and is markedly slowed at temperatures below 37° C. The washed cell layer was frozen in dishes then, the next day, distilled water was added to obtain a solution of cellular debris containing the intracellular radiolabel ([^3H]-XA). Freezing facilitated homogenization by repeated passage of the solution through a pipette. A 900 μl aliquot was added to scintillation fluid (Rotiszint®, 4 ml). The remainder of the solution was sampled to assay protein by the BCA method (Uptima). The radioactivity measured in the scintillation counter was converted by means of a suitable calibration curve into picomoles of XA taken up by the cells per mg of protein.\nFor each incubation time, transport was measured on nine dishes of NCB-20 cells with Na^+ and without Na^+. Ten different time points were studied: 0-10-30 seconds and 1, 2, 3, 5, 8, 10, 12 minutes. Four different experiments were carried out.\nFor each XA concentration, XA transport was measured on nine dishes of NCB-20 cells with Na^+ and nine dishes without Na^+. Seven different concentrations were tested: 1-5-12.5-25-50-100-200 μM. Four independent experiments were carried out.\nFour milliliters of scintillator were added to the tubes containing 900 μl of the cell suspension obtained. The control tube contained 900 μl of doubly-distilled water, and the tubes used to measure specific activity contained 10 μl of the radioactive solutions used as reagent during the experiment and 890 μl of doubly-distilled water. The tubes were closed, vortexed and left overnight at 4° C. before being counted in the scintillation counter. This count measures intracellular radioactivity which is directly proportional to the quantity of XA that entered the cell through passive or active transport. To calculate the amount of active transport, passive transport (Krebs without Na^+) is simply subtracted from total transport (Krebs with Na^+).\nOther endogenous molecules which might be transported by the XA transporter were tested. […] The results are shown in the histogram in FIG. 34 as the percentage entering the cells relative to transport in the presence of radiolabelled XA alone (=100%)."}, "[1]": {"system": "glutamate release in the frontal cortex", "assay": "Frontal extracellular glutamate release after retrodialysis of XA", "details": "rat, in vivo", "procedure": "Amino acids contained in 15 μl of dialysate were separated according to their hydrophobicity by reverse phase high performance liquid chromatography (HPLC). […] The mobile phase was composed of a binary gradient between solution A: 0.05 M NaH2PO4 (Roth) 80% (pH 4.8 adjusted with 10 N NaOH), methanol 20% (Chromanorm, Prolabo); and solution B: 0.05 M NaH2PO4 20% (pH 4.8 ajusted with 10 N NaOH), methanol 80% and THF 5%. Glutamate and GABA were measured by fluorimetric detection at an excitation wavelength of 345 nm and an emission wavelength of 455 nm after derivatization. Chromatogram acquisition and quantitative data analysis were done with Millenium software (Waters).\nThe samples were derivatized by mixing 15 μl of dialysate with 15 μl of the following derivatization solution: 7.5 mg o-phthaldialdehyde (Sigma) in 4.5 ml of 0.1 M sodium tetraborate pH 9.3, 500 μl of methanol and 10 μl of 3-mercapto-propionic acid (Sigma). The elution rate was 0.8 ml/min at 35° C. in a series of steps: 90% A and 10% B at 0 min; 40% A and 60% B to 15 min (linear gradient); 40% A and 60% B to 19 min (isocratic gradient); 0% A and 100% B to 19.1 min; 0% A and 100% B to 24 min (isocratic gradient); 90% A and 10% B to 24.1 min (isocratic gradient) and 90% A and 10% B to 30 min. […]"}, "[2]": {"system": "extracellular dopamine release in the PFC", "assay": "Microdialysis of dopamine, DOPAC and HVA in PFC after local XA", "details": "rat, in vivo", "procedure": "• Animals: Adult male Wistar rats weighing 250 to 275 g were housed in pairs in plastic cages with a standard 7 a.m.–7 p.m. light cycle and free access to food and water. Animals studies were conducted in accordance with the requirements of the EEC directive of 24 Nov. 1986 (86/609/EEC). • Chemicals: XA, 6-OHDA hydrobromide, 2,4,5-trihydroxyphenylethylamine and desipramine were purchased from Sigma. NCS-486 was produced by the Laboratoire de Pharmacochimie of the CNRS in Strasbourg. • Surgical protocol: An L-shaped cannula with 4 mm tip (CMA 12, Carnegie, Sweden) was used for the experiments. The dialysis membrane, 500 μm in diameter, was made of polycarbonate-polyether with a 20 Kda cutoff. The probe guide was implanted in the PFC under stereotactic guidance. Animals were anesthetized with ketamine hydrochloride (150 mg/kg i.p.)\nThe experiments were carried out in conscious rats with and without induced lesions, 24 to 48 hours after surgical insertion of the microdialysis probe. The composition of the microdialysis medium was as follows: 147 mM NaCl; 1.2 mM CaCl2; 1.2 mM MgCl2; 4.0 mM KCl, pH 6.5. The dialysis rate was 1 μl/min (CMA 100 pump, Carnegie). Dialysates were collected in 20 minute fractions and stored immediately in liquid nitrogen pending analysis.\nThese compounds were analyzed by HPLC with electrochemical detection. The chromatographic system consisted of a 25 cm×4.6 mm C18 column maintained at a constant temperature of 30° C. The mobile phase was 50 mM NaH2PO4 containing 0.1 mM EDTA and 6% methanol, the pH of the solution was adjusted to 4.85.\nRetrodialyzed XA concentrations were respectively 1 μM (black circles), 5 μM (black squares) and 20 μM (black triangles). XA was applied during a 20 minute dialysis. The results are expressed as the percentage of mean baseline dopamine release (determined on eight 20-min dialysis fractions prior to stimulation by XA) (FIG. 20)."}},
  "data": [
    {"smiles": "O=C(O)c1cc(O)c2cccc(O)c2n1", "note": "[XA, xanthurenic acid]", "values": [
      {"measurement": "increase of transport in the presence of sodium", "setting": "XA transport system", "value": "about 20%"},
      {"measurement": "Km", "setting": "XA transport system; read-out: Km of intracellular transport", "value": 105, "unit": "µM"},
      {"measurement": "decrease in GLU release", "setting": "[1]", "value": 37, "unit": "%"},
      {"measurement": "DOPAC release in PFC", "setting": "[2]", "value": "decreased slightly"},
      {"measurement": "HVA release in PFC", "setting": "[2]", "value": "decreased slightly"},
      {"measurement": "effect on dopamine release in PFC", "setting": "[2]", "value": "had no effect on dopamine release"},
      {"measurement": "increase of extracellular dopamine release in PFC", "setting": "[2]", "value": "approximately 250%"}
    ]}
  ]
}
